Results taken from publication PMC5608804, “Stepwise Evolution Improves Identification of Diverse Peptides Binding to a Protein Target” (Scientific Reports, 2017).

Target: T1, streptavidin (Streptomyces avidinii, UniProt P22629)
T1 construct: purchased GE Healthcare (Little Chalfont, UK)
Assay: Cy5-streptavidin binding on HotSpot discovery array, 5-mer L-peptide library
Conditions: for S/B: signal to background ratio
Procedure, shortened: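 Array of 2,476,099 5-mer peptides (19 amino acids, no cysteine) with Gly-Ser linkers, probed overnight at 4 °C with 0.5 µg/ml Cy5-streptavidin in Tris pH 7.4 buffer containing casein or BSA plus Tween-20. Cy5 fluorescence read at 635 nm; peptides selected by signal-to-background >4 across three arrays.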

[1] = 5-mer L-peptide library array, Cy5-streptavidin, from average of three arrays
[2] = 5-mer L-peptide library, from the average of three arrays
[3] = average of three arrays, L-peptide 5-mer library
[4] = 5-mer L-peptide library array, Cy5-streptavidin, from the average of three arrays
[5] = 5-mer L-peptide library array, Cy5-streptavidin

T1 sequence (P22629 25-183): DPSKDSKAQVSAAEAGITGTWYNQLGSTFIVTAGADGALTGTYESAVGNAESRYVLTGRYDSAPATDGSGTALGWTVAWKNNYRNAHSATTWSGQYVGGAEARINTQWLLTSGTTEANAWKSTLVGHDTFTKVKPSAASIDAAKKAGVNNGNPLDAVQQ

With KHPMA the “S/B (signal to background ratio)” value [1] was 27.5.
In the case of PKHPM, the “S/B (signal to background ratio)” value [1] is reported as 19.4.
For “FMFMF [L-amino acid 5-mer array peptide]”, the “S/B (signal to background ratio)” value [2] was 4.2 and the “S/B (signal to background ratio)” value [3] was 4.2.
WGHPH was tested, and the “S/B (signal to background ratio)” value [2] was 4.1.
For HPQFR, the “S/B (signal to background ratio)” value [1] was 23.8.
PPHPM was tested, and the “S/B (signal to background ratio)” value [1] was 53.6.
In the case of KFHPM, the “S/B (signal to background ratio)” value [1] is reported as 29.8.
In the case of “MPWRY [L-amino acid 5-mer array peptide]”, the “S/B (signal to background ratio)” value [2] is reported as 5.0 and the “S/B (signal to background ratio)” value [3] is reported as 5.0.
For NIHPQ, the “S/B (signal to background ratio)” value [4] was 100.3.
With HPQPF the S/B [5] was 5.7.
In the case of GGHPQ, the “S/B (signal to background ratio)” value [1] is reported as 124.2.
In the case of MKHPQ, the “S/B (signal to background ratio)” value [4] is reported as 84.7.
For HPQQK, the “S/B (signal to background ratio)” value [2] was 4.4.
With YHPPQ the “S/B (signal to background ratio)” value [2] was 4.7.
In the case of FKHPQ, the “S/B (signal to background ratio)” value [1] is reported as 123.2.
For HPQHV, the S/B [5] was 13.6.
With NRHPM the “S/B (signal to background ratio)” value [1] was 48.6.
In the case of EHPQR, the “S/B (signal to background ratio)” value [1] is reported as 45.0.
For YAHPQ, the “S/B (signal to background ratio)” value [1] was 186.2.
With HPQSS the “S/B (signal to background ratio)” value [1] was 28.2.
In the case of IAHPQ, the “S/B (signal to background ratio)” value [1] is reported as 136.2.
HYHPQ was tested, and the “S/B (signal to background ratio)” value [1] was 184.3.
RHPMW showed a S/B [5] of 5.9.
In the case of RKHPQ, the “S/B (signal to background ratio)” value [1] is reported as 46.9.
RHPMI showed a S/B [5] of 8.0.
With HPQVF the “S/B (signal to background ratio)” value [1] was 56.9.
HPQIF gave a S/B [5] of 6.3.
Work on AKHPM yielded a S/B [5] of 18.3.
SHPQY was tested, and the “S/B (signal to background ratio)” value [1] was 47.6.
With VHHPQ the “S/B (signal to background ratio)” value [1] was 141.1.
In the case of LHPQT, the S/B [5] is reported as 15.6.
SSHPQ was tested, and the “S/B (signal to background ratio)” value [1] was 134.8.
In the case of KHPQN, the “S/B (signal to background ratio)” value [4] is reported as 64.6.
IPHPM was tested, and the “S/B (signal to background ratio)” value [1] was 35.9.
For “FMFMI [L-amino acid 5-mer array peptide]”, the “S/B (signal to background ratio)” value [2] was 4.3 and the “S/B (signal to background ratio)” value [3] was 4.3.
FHPQK gave a S/B [5] of 14.2.
With EHHPQ the “S/B (signal to background ratio)” value [4] was 87.5.
For “MVAHF [L-amino acid 5-mer array peptide]”, the “S/B (signal to background ratio)” value [3] was 6.3 and the S/B [5] was 6.3.
For HPQVH, the “S/B (signal to background ratio)” value [1] was 57.8.
In the case of FHPQM, the “S/B (signal to background ratio)” value [4] is reported as 58.1.
With HPMQA the S/B [5] was 6.4.
DLHPQ was tested, and the “S/B (signal to background ratio)” value [4] was 60.4.
Substance HPMMW has a S/B [5] of 5.7.
With HPMNH the “S/B (signal to background ratio)” value [2] was 4.4.
For NGHPQ, the “S/B (signal to background ratio)” value [1] was 144.3.
In the case of HPMFA, the S/B [5] is reported as 17.2.
“LAMYH [L-amino acid 5-mer array peptide]” was tested, and the “S/B (signal to background ratio)” value [1] was 22.8 and the “S/B (signal to background ratio)” value [3] was 22.8.
DHPMG was tested, and the “S/B (signal to background ratio)” value [1] was 29.8.
NAHPM was tested, and the “S/B (signal to background ratio)” value [1] was 36.0.
For “FDGWL [L-amino acid 5-mer array peptide]”, the “S/B (signal to background ratio)” value [3] was 6.7 and the S/B [5] was 6.7.
In the case of HPQFN, the “S/B (signal to background ratio)” value [4] is reported as 113.3.
With YTHPQ the “S/B (signal to background ratio)” value [1] was 174.6.
For GWHPQ, the “S/B (signal to background ratio)” value [1] was 190.5.
In the case of “TPSFH [L-amino acid 5-mer array peptide]”, the “S/B (signal to background ratio)” value [3] is reported as 6.7 and the S/B [5] is reported as 6.7.
With KPHPM the “S/B (signal to background ratio)” value [1] was 21.9.
In the case of KQHPQ, the “S/B (signal to background ratio)” value [4] is reported as 94.4.
With IFHPQ the “S/B (signal to background ratio)” value [1] was 166.8.
QMHPQ was tested, and the “S/B (signal to background ratio)” value [1] was 124.9.
With WRHPM the “S/B (signal to background ratio)” value [1] was 120.0.
In the case of IEHPQ, the “S/B (signal to background ratio)” value [4] is reported as 67.6.
With GHPQV the “S/B (signal to background ratio)” value [4] was 97.6.
RHPMY gave a S/B [5] of 14.4.
Work on HPQYD yielded a S/B [5] of 8.0.
In the case of HHPGQ, the “S/B (signal to background ratio)” value [2] is reported as 4.3.
In the case of “LGRFH [L-amino acid 5-mer array peptide]”, the “S/B (signal to background ratio)” value [3] is reported as 8.7 and the S/B [5] is reported as 8.7.
In the case of VIHPM, the “S/B (signal to background ratio)” value [1] is reported as 20.7.
In the case of HPMSY, the “S/B (signal to background ratio)” value [2] is reported as 4.8.
In the case of QNHPQ, the “S/B (signal to background ratio)” value [1] is reported as 135.0.
HHHPQ was tested, and the “S/B (signal to background ratio)” value [1] was 143.8.
“MALHF [L-amino acid 5-mer array peptide]” was tested, and the “S/B (signal to background ratio)” value [3] was 8.0 and the S/B [5] was 8.0.
With TRHPM the “S/B (signal to background ratio)” value [1] was 53.7.
WHPQY was tested, and the “S/B (signal to background ratio)” value [1] was 53.1.
For “LGQYH [L-amino acid 5-mer array peptide]”, the “S/B (signal to background ratio)” value [1] was 31.1 and the “S/B (signal to background ratio)” value [3] was 31.1.
With SNHPQ the “S/B (signal to background ratio)” value [1] was 144.9.
For WKHPQ, the “S/B (signal to background ratio)” value [1] was 175.0.
In the case of HRHPM, the “S/B (signal to background ratio)” value [4] is reported as 61.8.
For FPHPQ, the “S/B (signal to background ratio)” value [1] was 173.5.
With GHPPQ the “S/B (signal to background ratio)” value [2] was 5.2.
In the case of KGHPQ, the “S/B (signal to background ratio)” value [4] is reported as 65.1.
HPQFS was tested, and the “S/B (signal to background ratio)” value [1] was 123.4.
HPQFH was tested, and the “S/B (signal to background ratio)” value [4] was 64.4.
For YSHPQ, the “S/B (signal to background ratio)” value [1] was 171.8.
For ENHPM, the “S/B (signal to background ratio)” value [1] was 23.5.
With HPQWQ the S/B [5] was 5.5.
NHPQL was tested, and the “S/B (signal to background ratio)” value [2] was 4.1.
With KHPMH the “S/B (signal to background ratio)” value [2] was 5.1.
Work on HPQAL yielded a S/B [5] of 10.3.
QYHPM was tested, and the “S/B (signal to background ratio)” value [4] was 82.7.
For “FFMMF [L-amino acid 5-mer array peptide]”, the “S/B (signal to background ratio)” value [2] was 4.3 and the “S/B (signal to background ratio)” value [3] was 4.3.
Work on HPQSW yielded a S/B [5] of 18.3.
With AHPQG the “S/B (signal to background ratio)” value [1] was 120.5.
In the case of “FDEWL [L-amino acid 5-mer array peptide]”, the “S/B (signal to background ratio)” value [2] is reported as 4.8 and the “S/B (signal to background ratio)” value [3] is reported as 4.8.
In the case of HPQGE, the “S/B (signal to background ratio)” value [1] is reported as 40.1.
HPMVF gave a S/B [5] of 5.3.
For HPAFQ, the “S/B (signal to background ratio)” value [2] was 4.5.
